Assay results published in the METLIN SMRT retention time set (Domingo-Almenara et al. 2019).

assay: gradient 5% acetonitrile 3 min, to 50% in 2 min, to 85% in 15 min, held 3 min, 100 µL/min; details: column: Zorbax Extend-C18 2.1 x 50 mm; eluents: water / acetonitrile, 0.1% formic acid
How it was run: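 Retention time was recorded from adduct peaks, which were picked computationally and each inspected manually. Pure standards ran in mixtures of ~100 molecules on HPLC coupled to a quadrupole time-of-flight mass spectrometer, in positive and negative ionization mode, through a Zorbax Extend-C18 column (2.1 × 50 mm, 1.8 μm) at 100 μL/min. Eluents were water and acetonitrile, each with 0.1% formic acid.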

Structure (SMILES)	RP-LC retention time
Cc1cc2c(cc1S(=O)(=O)N1CCCC1C(=O)Nc1ccc(C(F)(F)F)cc1)OCC(=O)N2 (stereo unspecified)	873 s
Cc1nnc(N2CCCC(C(=O)NC3CCCCCC3)C2)c2nn(-c3ccc(Cl)cc3)c(C)c12 (stereo unspecified)	831 s
CCCCCCCCOC(=O)/C=C/c1ccc(O)c(O)c1	630 s
CN(C)C(=O)c1ccc2c(c1)nc(CN(C)C(=O)Nc1ccc(F)cc1)n2C	598 s
CCOC(=O)c1ccc2nc(C(F)(F)F)nc(NCCCN3CCCC3=O)c2c1	876 s
Cc1cc(-c2ccc3c(c2)CCN3C(=O)C2CCCO2)on1 (stereo unspecified)	767 s
CC(C)CCNC(=O)CCCn1c2ccccc2c2cnn(C)c(=O)c21	865 s
Cc1nnc(NC(=O)Cn2cccn2)s1	562 s
CCn1c(=O)sc2cc(S(=O)(=O)N3CCC(C(=O)Nc4ccc5c(c4)OCO5)CC3)ccc21	863 s
O=C(C1CC1)N1CCc2sc(S(=O)(=O)Nc3cccc(F)c3)cc2C1	829 s
CN1CCN(CCCNC(=O)c2ccc3c(c2)N(C)C(=O)C2CCCCN32)CC1 (stereo unspecified)	575 s
Cc1cc2c(cc1S(=O)(=O)N1CCCC1C(=O)NCc1ccc3c(c1)OCO3)OC(C)C(=O)N2 (stereo unspecified)	755 s
Cc1nc(-c2csc(S(=O)(=O)N3CCCC(C(=O)NCCc4sccc4C)C3)c2)no1 (stereo unspecified)	932 s
COc1ncc(C(=O)Nc2cccc(Cl)c2)c(C)n1	812 s
CC(=O)N1c2ccc(S(=O)(=O)N3CCCCC3)cc2CC1C(=O)NCCN(C)C1CCCCC1 (stereo unspecified)	655 s
Cc1ccc(C(=O)Nc2nnc(SCc3nnc(-c4ccccc4C)o3)s2)cc1	1040 s
CCCNC(=O)c1cc2sccc2n1Cc1ccc(C)cc1	1060 s
CC(C)n1c(=O)sc2cc(S(=O)(=O)N3CCC(C(=O)NCc4ccco4)CC3)ccc21	861 s
CCn1cnc(S(=O)(=O)N2CCC(C(=O)Nc3ccc(C)cc3C)CC2)c1	741 s
CC(C)C(=O)N1CCCC1c1nc(CCOCC2CC2)no1 (stereo unspecified)	733 s
Cc1ccc2cc(CN3CCC4(CCC4O)CC3)c(=O)[nH]c2c1 (stereo unspecified)	590 s
Oc1cccc(-c2nc3cnccn3c2Nc2ccc(F)cc2)c1	728 s
O=C(NCCn1c(=O)n(Cc2ccc(F)cc2)c2cccnc21)C1CCCC1	782 s
CCCN1C(=O)c2c(C(=O)NCc3ccc(F)cc3)ncn2CC1(C)C(=O)NCCC(C)C (stereo unspecified)	824 s

Further lines, results first:

RP-LC retention time	Structure (SMILES)
957 s	COc1cccc(-c2noc(Cn3nc(-c4ccc5c(c4)OCO5)ccc3=O)n2)c1
656 s	COc1ccc(-c2ccc(N3CCN(C(=O)Cc4cn(C)c5ccccc45)CC3)nn2)cc1
898 s	COc1ccccc1CCNC(=O)Cn1cc(S(=O)(=O)c2ccccc2)c2ccccc21
826 s	CN1CC(=O)N(CC(=O)Nc2ccc(Cl)c(C(F)(F)F)c2)c2ccccc2C1=O
637 s	Cn1c(=O)c(-c2noc(C(=O)N3CCN(c4ccccn4)CC3)n2)nn(-c2ccccc2)c1=O
789 s	COc1cccc(N2CCN(c3ccnc(SCC(=O)Nc4ccccc4F)n3)CC2)c1
644 s	O=C(c1cccc(C(F)(F)F)c1)N1CCN(c2nc(CN3CCOCC3)cs2)CC1
771 s	Cn1ncc(NC(=O)c2ccc(Cl)cc2)c(N2CCOCC2)c1=O
1020 s	O=C(Nc1ccc(F)c(F)c1)C1CCCN(C(=O)Cc2cccc3ccccc23)C1 (stereo unspecified)
796 s	Cc1oc(C2CCN(C(=O)COc3ccccc3)CC2)nc1C(=O)N1CCCCC1
638 s	CCc1nc2c(c(=O)n1CC(=O)Nc1ccccc1)CN(Cc1ccccc1)CC2
627 s	O=C(Nc1ccc(Br)cc1F)N1CCN(Cc2ccc3nccnc3c2)CC1
